Assay results reported in patent EP0512684B1, “Synergistic herbicidal compositions” (DOWELANCO, priority 1991, dated 1992).

Key:
Assay type in all cases: in vivo
Fumaria officinalis [1] = assay: Postemergent weed control, field trials (Example II)
Procedure: In all Examples, the percent kill and control is measured on a scale of 0 percent = no kill and control 100 percent = complete kill and control. Expected control is calculated as 100 -((% control by Compound A) x (% control by Compound B))/(100) [formula] where % control= 100-actual control according to the technique described in Colby, "Calculating Synergistic and Antagonistic Responses of Herbicidal Combinations", Weeds, Volume 15 (1967), pages 20-22 and Colby, "Greenhouse Evaluation of Herbicidal Combinations", Proc. NEWCC, No. 19, pages 312-320. The percent increase over the expected control is calculated as (Actual control)/(Expected Control)x 100 - 100 [formula] Table I A number of compositions in accordance with the present invention were prepared as in Example I and evaluated in field trials to determine their effectiveness in the postemergent control of the weed Fumaria officinalis growing in the presence of spring barley of the variety Triumph. Seeds of the plants spring barley of the variety Triumph and the weed specie Fumaria officinalis were planted in plots 6 meters x 3 meters composed of calcareous clay loam soil. Two months after planting, the plants were sprayed at a rate of 200 litre/hectare with one of the compositions having an active material control such as to give treatment rates shown in Table VI. […]

Galium aparine = assay: Weed control, visual percent control (Example IV)
Procedure: (§1) In all Examples, the percent kill and control is measured on a scale of 0 percent = no kill and control 100 percent = complete kill and control. Expected control is calculated as 100 -((% control by Compound A) x (% control by Compound B))/(100) [formula] where % control= 100-actual control according to the technique described in Colby, "Calculating Synergistic and Antagonistic Responses of Herbicidal Combinations", Weeds, Volume 15 (1967), pages 20-22 and Colby, "Greenhouse Evaluation of Herbicidal Combinations", Proc. NEWCC, No. 19, pages 312-320. The percent increase over the expected control is calculated as (Actual control)/(Expected Control)x 100 - 100 [formula] Table I An emulsifiable concentrate of fluroxypyr methyl ester (as compound B) was prepared having the following composition. Varying amounts of this emulsifiable concentrate containing 100 g/l Fluroxypyr methyl ester (as acid equivalent) were added to a suspension concentrate of compound A prepared as in Example I, to provide the desired concentration of Compound B. The resulting formulation was tested against the following weeds, at the growth stage indicated, by the method described above. [table] In each case, the composition was applied ata rate of 200 litres per hectare. The percent of control was assessed by visual percent control (tables VIII to XII) and also by measurement of fresh weight (tables XIII to XVII).

Veronica persica = assay: Weed control, visual percent control (Example IV)
Procedure: as §1

Viola arvensis [2] = assay: Weed control, visual percent control (Example IV)
Procedure: as §1

Lamium purpureum [3] = assay: Weed control by reduction in fresh weight (Example IV)
Procedure: as §1

Bilderdykia convolvulus = assay: Postemergent weed control, greenhouse (Example I)
Procedure: (§2) In all Examples, the percent kill and control is measured on a scale of 0 percent = no kill and control 100 percent = complete kill and control. Representative compositions of the present invention were evaluated to determine their effectiveness in synergistic postemergent weed control operations. Suspension emulsions containing varying concentrations of the methylheptyl ester of ((4-amino-3,5-dichloro-6-fluoro-2-pyridinyl)oxy)-acetic acid (Compound B) and N-(2,6-dichloro-3-methylphenyl)-5,7-dimethoxy-1,2,4,-triazolo(1,5a)pyrimidine-2-sulfonamide (Compound A), were prepared as follows: A 250 g per litre suspension concentrate of Compound A was prepared by wet-milling the following ingredients, until a particle size distribution with a volume median diameter of about 2μm was obtained. Varying amounts of the resulting suspension concentrate were added to water to provide the desired concentration of Compound A. Similarly, varying amounts of a commercially available emulsifiable concentrate containing 200 g/l (as acid equivalent) of fluroxypyr 1 methylheptyl ester (Trade Mark […]-2) were added, to provide the desired concentration of Compound B. In each of the tests which follow, the composition was applied at a rate of 200 litres per hectare. Accordingly, in each case, the amount of water to which the suspension concentrate of Compound A and the emulsifiable concentrate of Compound B was added was sufficient to provide the desired application rates, when the resulting composition was used at this application rate. Seeds of the weed species Bilderdykia convolvulus, Viola arvensis, Lamium purpureum, Chenopodium album and Fumaria officinalis, and seeds of the crop plant winter wheat variety Avalon, were planted in beds of good agricultural soil and grown in a greenhouse. […] The results are shown in Tables I to V. In the tables which follow, those runs which include only one but not both of Compound A and Compound B are included as controls. Expected control is calculated as 100 -((% control by Compound A) x (% control by Compound B))/(100) [formula] where % control= 100-actual control according to the technique described in Colby, "Calculating Synergistic and Antagonistic Responses of Herbicidal Combinations", Weeds, Volume 15 (1967), pages 20-22 and Colby, "Greenhouse Evaluation of Herbicidal Combinations", Proc. NEWCC, No. 19, pages 312-320. The percent increase over the expected control is calculated as (Actual control)/(Expected Control)x 100 - 100 [formula]

Viola arvensis [4] = assay: Postemergent weed control, greenhouse (Example I)
Procedure: as §2

Fumaria officinalis [5] = assay: Postemergent weed control, greenhouse (Example I)
Procedure: as §2

Chenopodium album = assay: Postemergent weed control, greenhouse (Example I)
Procedure: as §2

Lamium purpureum [6] = assay: Postemergent weed control, greenhouse (Example I)
Procedure: as §2

Viola arvensis [7] = assay: Post-emergent weed control by reduction in fresh weight (Examples V, VI and VII)
Procedure: (§3) In all Examples, the percent kill and control is measured on a scale of 0 percent = no kill and control 100 percent = complete kill and control. Expected control is calculated as 100 -((% control by Compound A) x (% control by Compound B))/(100) [formula] where % control= 100-actual control according to the technique described in Colby, "Calculating Synergistic and Antagonistic Responses of Herbicidal Combinations", Weeds, Volume 15 (1967), pages 20-22 and Colby, "Greenhouse Evaluation of Herbicidal Combinations", Proc. NEWCC, No. 19, pages 312-320. The percent increase over the expected control is calculated as (Actual control)/(Expected Control)x 100 - 100 [formula] Table I A 20% w/w suspension concentrate of fluroxypyr acid in water was prepared by wet milling the ingredients shown in Table XVIII until a particle size distribution with a volume median diameter of about 2µm was obtained. Varying amounts of the resulting suspension concentrate were added to water to provide the desired concentration of fluroxypyr acid. […] Varying amounts of the resulting solutions were further diluted with water to provide the desired concentration of the fluroxypyr salt. Similarly, varying amounts of the suspension concentrate of compound A prepared as in Example 1 were added, to provide the desired concentration of compound A. The formulations resulting from Examples V, VI and VII were evaluated to determine their effectiveness in the post-emergent control of the weeds Viola arvensis, Galium aparine, and Matricaria inodora.

Matricaria inodora = assay: as above
Procedure: as §3

COc1cc(OC)n2nc(S(=O)(=O)Nc3c(Cl)ccc(C)c3Cl)nc2n1 [Cmpd A, N-(2,6-dichloro-3-methylphenyl)-5,7-dimethoxy-1,2,4,-triazolo(1,5a)pyrimidine-2-sulfonamide]
Actual Control 28 days after treatment (%) (Fumaria officinalis [1]; Cmpd A 10.0 g/ha alone): 0.0% | Actual Control 28 days after treatment (%) (Fumaria officinalis [1]; Cmpd A 20.0 g/ha alone): 15.0% | Actual Control (%) 19 days after treatment (Galium aparine; Cmpd A 3.125 g/ha alone): 0% | Actual Control (%) 19 days after treatment (Galium aparine; Cmpd A 6.25 g/ha alone): 0% | Actual Control (%) 19 days after treatment (Galium aparine; Cmpd A 12.5 g/ha alone): 0% | Actual Control (%) 19 days after treatment (Galium aparine; Cmpd A 25.0 g/ha alone): 0% | Actual Control (%) 19 days after treatment (Veronica persica; Cmpd A 3.125 g/ha alone): 10% | Actual Control (%) 19 days after treatment (Veronica persica; Cmpd A 6.25 g/ha alone): 20% | Actual Control (%) 19 days after treatment (Veronica persica; Cmpd A 12.5 g/ha alone): 28% | Actual Control (%) 19 days after treatment (Veronica persica; Cmpd A 25.0 g/ha alone): 30% | Actual Control (%) 19 days after treatment (Viola arvensis [2]; Cmpd A 3.125 g/ha alone): 22% | Actual Control (%) 19 days after treatment (Viola arvensis [2]; Cmpd A 6.25 g/ha alone): 12% | Actual Control (%) 19 days after treatment (Viola arvensis [2]; Cmpd A 12.5 g/ha alone): 55% | Actual Control (%) 19 days after treatment (Viola arvensis [2]; Cmpd A 25.0 g/ha alone): 72% | Actual Reduction (%) 19 days after treatment (Lamium purpureum [3]; Cmpd A 3.125 g/ha): 4% | Actual Reduction (%) 19 days after treatment (Lamium purpureum [3]; Cmpd A 6.25 g/ha): 0% | Actual Reduction (%) 19 days after treatment (Lamium purpureum [3]; Cmpd A 12.5 g/ha): 19% | Actual Reduction (%) 19 days after treatment (Lamium purpureum [3]; Cmpd A 25.0 g/ha): 11% | Actual Control (%) 32 days after treatment (Bilderdykia convolvulus; Cmpd A 6.25 g/ha alone): 0% | Actual Control (%) 32 days after treatment (Bilderdykia convolvulus; Cmpd A 12.50 g/ha alone): 45% | Actual Control (%) 32 days after treatment (Bilderdykia convolvulus; Cmpd A 25.00 g/ha alone): 30% | Actual Control (%) 32 days after treatment (Bilderdykia convolvulus; Cmpd A 50.00 g/ha alone): 53% | Actual Control (%) 17 days after treatment (Viola arvensis [4]; Cmpd A 6.25 g/ha alone): 15% | Actual Control (%) 17 days after treatment (Viola arvensis [4]; Cmpd A 12.50 g/ha alone): 36% | Actual Control (%) 17 days after treatment (Viola arvensis [4]; Cmpd A 25.00 g/ha alone): 39% | Actual Control (%) 17 days after treatment (Viola arvensis [4]; Cmpd A 50.00 g/ha alone): 50% | Actual Control 19 days after treatment (%) (Fumaria officinalis [5]; Cmpd A 3.125 g/ha alone): 5% | Actual Control 19 days after treatment (%) (Fumaria officinalis [5]; Cmpd A 6.25 g/ha alone): 18% | Actual Control 19 days after treatment (%) (Fumaria officinalis [5]; Cmpd A 12.50 g/ha alone): 0% | Actual Control 19 days after treatment (%) (Fumaria officinalis [5]; Cmpd A 25.00 g/ha alone): 18% | Actual Control 19 days after treatment (%) (Chenopodium album; Cmpd A 3.125 g/ha alone): 47% | Actual Control 19 days after treatment (%) (Chenopodium album; Cmpd A 6.25 g/ha alone): 60% | Actual Control 19 days after treatment (%) (Chenopodium album; Cmpd A 12.50 g/ha alone): 55% | Actual Control 19 days after treatment (%) (Chenopodium album; Cmpd A 25.00 g/ha alone): 60% | Actual Control (%) 12 days after treatment (Lamium purpureum [6]; Cmpd A 6.25 g/ha alone): 18% | Actual Control (%) 12 days after treatment (Lamium purpureum [6]; Cmpd A 12.50 g/ha alone): 24% | Actual Control (%) 12 days after treatment (Lamium purpureum [6]; Cmpd A 25.00 g/ha alone): 25% | Actual Control (%) 12 days after treatment (Lamium purpureum [6]; Cmpd A 50.00 g/ha alone): 23% | Actual Control (%) 23 days after treatment (Viola arvensis [7]; Cmpd A 6.25 g/ha): 20% | Actual Control (%) 23 days after treatment (Viola arvensis [7]; Cmpd A 6.25 g/ha, Table XX): 20% | Actual Control (%) 23 days after treatment (Viola arvensis [7]; Cmpd A 12.50 g/ha): 50% | Actual Control (%) 23 days after treatment (Viola arvensis [7]; Cmpd A 12.50 g/ha, Table XX): 50% | Actual Control (%) 23 days after treatment (Viola arvensis [7]; Cmpd A 25.00 g/ha): 52% | Actual Control (%) 23 days after treatment (Viola arvensis [7]; Cmpd A 25.00 g/ha, Table XX): 52% | Actual Control (%) 23 days after treatment (Viola arvensis [7]; Cmpd A 50.00 g/ha): 60% | Actual Control (%) 23 days after treatment (Viola arvensis [7]; Cmpd A 50.00 g/ha, Table XX): 60% | Actual Control (%) 17 days after treatment (Matricaria inodora; Cmpd A 6.25 g/ha): 7% | Actual Control (%) 17 days after treatment (Matricaria inodora; Cmpd A 12.50 g/ha): 32% | Actual Control (%) 17 days after treatment (Matricaria inodora; Cmpd A 25.00 g/ha): 75% | Actual Control (%) 17 days after treatment (Matricaria inodora; Cmpd A 50.00 g/ha): 72%
